Assay results as given in ChEMBL document CHEMBL1142857, “A new class of high affinity thyromimetics containing a phenyl-naphthylene core” (Bioorg Med Chem Lett, 2005).

Assays:
[1] = target: T1, Thyroid hormone receptor alpha (Homo sapiens, UniProt P10827)
T1 sequence (P10827 whole entry): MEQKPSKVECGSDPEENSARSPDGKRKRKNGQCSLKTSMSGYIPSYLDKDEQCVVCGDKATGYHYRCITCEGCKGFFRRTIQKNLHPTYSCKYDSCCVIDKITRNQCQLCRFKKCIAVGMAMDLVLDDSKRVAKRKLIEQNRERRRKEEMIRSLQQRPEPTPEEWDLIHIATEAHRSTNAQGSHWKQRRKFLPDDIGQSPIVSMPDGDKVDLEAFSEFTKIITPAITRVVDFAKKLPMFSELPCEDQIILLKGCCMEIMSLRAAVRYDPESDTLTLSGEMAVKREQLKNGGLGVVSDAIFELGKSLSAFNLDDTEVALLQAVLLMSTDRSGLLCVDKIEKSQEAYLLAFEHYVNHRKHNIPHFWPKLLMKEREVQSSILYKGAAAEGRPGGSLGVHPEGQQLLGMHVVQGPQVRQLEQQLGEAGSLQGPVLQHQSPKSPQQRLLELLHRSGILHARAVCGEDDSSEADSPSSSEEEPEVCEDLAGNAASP

[2] = target: T2, Thyroid hormone receptor beta (Homo sapiens, UniProt P10828)
T2 sequence (P10828 whole entry): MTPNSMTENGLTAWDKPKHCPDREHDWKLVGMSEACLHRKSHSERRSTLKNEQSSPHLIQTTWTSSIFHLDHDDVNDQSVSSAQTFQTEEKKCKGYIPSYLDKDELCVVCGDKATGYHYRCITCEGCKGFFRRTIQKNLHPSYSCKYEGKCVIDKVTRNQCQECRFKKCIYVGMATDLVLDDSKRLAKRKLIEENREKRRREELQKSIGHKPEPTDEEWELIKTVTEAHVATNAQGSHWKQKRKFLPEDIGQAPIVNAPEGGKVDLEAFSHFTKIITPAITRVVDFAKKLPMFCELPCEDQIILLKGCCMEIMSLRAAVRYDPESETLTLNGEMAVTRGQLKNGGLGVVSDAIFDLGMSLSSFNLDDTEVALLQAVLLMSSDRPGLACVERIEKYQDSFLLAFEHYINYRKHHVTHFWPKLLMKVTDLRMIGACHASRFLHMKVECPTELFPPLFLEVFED
Description: Inhibitory concentration against cloned human thyroid hormone receptor beta 1

[3] = target: T1, Thyroid hormone receptor alpha; test: Inhibitory concentration against cloned human thyroid hormone receptor alpha 1

| SMILES | IC50 [1] [µM] | IC50 [2] [µM] | IC50 [3] [µM] |
| --- | --- | --- | --- |
| O=C(O)Cc1cc(Cl)c(Oc2ccc(O)cc2)c(Cl)c1 | 3.6 | 2.14 |  |
| O=C(O)CNc1cc(Cl)c(-c2cccc3c(Br)c(O)ccc23)c(Cl)c1 | 0.019 | 0.0018 |  |
| O=C(O)CC(=O)Nc1cc(Cl)c(-c2cccc3c(Br)c(O)ccc23)c(Cl)c1 | 0.0043 | 0.0003 |  |
| O=C(O)Cc1cc(Cl)c(-c2cccc3c(Br)c(O)ccc23)c(Cl)c1 | 0.101 | 0.013 |  |
| O=C(O)Cc1cc(Cl)c(-c2cccc3cc(O)ccc23)c(Cl)c1 |  | 0.545 | 1.54 |
| O=C(O)Nc1cc(Cl)c(-c2cccc3c(-c4ccccc4)c(O)ccc23)c(Cl)c1 | 0.125 | 0.029 |  |
| O=C(O)CCNc1cc(Cl)c(-c2cccc3c(Br)c(O)ccc23)c(Cl)c1 | 0.013 | 0.0018 |  |
| O=C(O)Cc1cc(Cl)c(Oc2ccc(O)c(Br)c2)c(Cl)c1 | 0.109 | 0.009 |  |

Further lines, results first:

| IC50 [1] [µM] | IC50 [2] [µM] | IC50 [3] [µM] | SMILES |
| --- | --- | --- | --- |
| 0.048 | 0.0072 |  | Cc1c(O)ccc2c(-c3c(Cl)cc(NC(=O)O)cc3Cl)cccc12 |
| 0.014 | 0.0003 |  | COc1ccc2c(-c3c(Cl)cc(NC(=O)CC(=O)O)cc3Cl)cccc2c1C(C)C |
| 0.0054 | 0.0003 |  | O=C(O)C(=O)Nc1cc(Cl)c(-c2cccc3c(Br)c(O)ccc23)c(Cl)c1 |
| 0.062 | 0.022 |  | O=C(O)CCC(=O)Nc1cc(Cl)c(-c2cccc3c(Br)c(O)ccc23)c(Cl)c1 |
